{"source": "patent US20090247558A1", "about": "“USE OF THE CRH (CORTICOTROPIN RELEASING HORMONE) - UCN (UROCORTIN) SYSTEM IN THE TREATMENT OF INFLAMMATORY DISEASES” (priority 2002, published 2009)", "key": {"[1]": {"test_system": "LPS-induced endotoxin shock in Balb/c mice", "assay": "Serum proinflammatory cytokines (ELISA) in LPS-induced endotoxin shock", "type": "in vivo", "conditions": "for TNF-α level / IL-6 level / IL-1β level: antalarmin pre-treated vs LPS alone; for IL-6 level / IL-1β level: 4 hours after LPS; for IL-1β level: p=0.013", "method": "(§1) Each time point and treatment group was composed of five animals per experiment. Sera were collected and frozen until used for cytokine determination by ELISA according to manufacturer (R&D, NE, USA). Similarly, cell culture supernatants were collected 24 hours following stimulation and stored at −70° C. until analyzed. Corticosterone was measured by RIA in serum collected 1 hour following LPS administration. Five animals per treatment were used. Sera were frozen at −70° C. and analyzed as recommended by the manufacturer (ICN, USA)."}, "CRH-R1 receptor [2]": {"biological_target": "T1, CRH-R1 receptor (Mus musculus, UniProt P35347)", "T1 construct": "monocyte/macrophage cells which express both the CRH-R1 and the CRH-R2 receptors on the surface; endogenous in cells; host or cells: macrophages in vitro (RAW 264.7 or Balb/c peritoneal macrophages, inferred)", "T1 sequence (P35347 24-415)": "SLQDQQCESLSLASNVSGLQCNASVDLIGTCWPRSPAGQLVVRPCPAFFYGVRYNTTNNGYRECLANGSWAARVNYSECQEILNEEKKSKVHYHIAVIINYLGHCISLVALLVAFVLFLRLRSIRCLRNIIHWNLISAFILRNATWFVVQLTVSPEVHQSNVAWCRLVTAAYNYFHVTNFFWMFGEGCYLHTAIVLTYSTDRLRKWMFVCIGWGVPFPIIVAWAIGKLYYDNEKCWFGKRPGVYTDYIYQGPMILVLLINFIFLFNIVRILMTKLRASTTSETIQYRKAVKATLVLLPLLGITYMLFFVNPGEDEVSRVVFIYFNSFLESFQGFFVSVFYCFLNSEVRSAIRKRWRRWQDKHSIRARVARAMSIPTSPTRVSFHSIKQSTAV", "conditions": "cited from earlier work"}, "CRH-R1 receptor [3]": {"biological_target": "T2, CRH-R1 receptor (Rattus norvegicus, UniProt P35353)", "T2 construct": "endogenous in cells; host or cells: PC12 rat pheochromocytoma cells", "T2 sequence (P35353 24-415)": "T1 sequence (P35347 24-415) with Q6R, S9N, A13T, I95V, Y229H", "conditions": "PC12 rat pheochromocytoma cells; cited from earlier work"}, "[4]": {"test_system": "LPS-induced endotoxin shock in Balb/c mice", "method": "Male 20- to 25-g Balb/c mice 8 to 10 weeks old were used. They were kept in our animal facility for at least one week prior to each experiment to allow adjustment and confirmation of their health. Each animal received rodent laboratory chow and water ad libitum. The CRH-R1 antagonist used was provided by the Pediatric and Reproductive Endocrinology Branch, NICHD, NIH, Bethesda, Md. Antalarmin was initially dissolved into 100% ethanol at a concentration of 200 mg/ml and then diluted in a 1:1 ratio with Cremaphor EL (Sigma), and finally brought to a working stock of 2 mg/ml antalarmin in 10% ethanol and 10% Cremaphor EL in sterile water. E coli lipopolysaccharide (serotype 0111:B4, cat. # L2630) and Salmonella enteritidis lipopolysaccharide (cat. # L6011) were purchased from Sigma. The antibodies and the reagents for the TNF-α, IL-1β and IL-6 determination were purchased from R&D (NE, USA).\nFor the determination of the LD50 groups composed of five mice were injected intraperitoneally (i.p) with either 200, 400, 600, 700 or 1000 μg/mouse of Salmonella-derived LPS (Sigma) dissolved in PBS at a concentration of 10 mg/ml. Survival of animals was monitored for a period of seven days. The same protocol was used for E. coli-derived LPS (O111:B4). To determine the effect of antalarmin in the survival of mice injected with LPS, 40 mice were divided in four different groups; the first group received antalarmin at a concentration of 20 mg/kg of body weight; the second received antalarmin at 20 mg/kg of body weight and LPS at a concentration of 0.7 mg per 25 g of body weight; the third group received LPS and the antalarmin diluent while the fourth group received the antalarmin diluent alone."}, "Balb/c mice": {"test_system": "Balb/c mice", "assay": "Determination of the LD50 of LPS i.p.", "type": "in vivo"}, "CRH-R2 receptor": {"biological_target": "T3, CRH-R2 receptor (Mus musculus, UniProt Q60748)", "T3 construct": "monocyte/macrophage cells which express both the CRH-R1 and the CRH-R2 receptors on the surface; endogenous in cells; host or cells: macrophages", "T3 sequence (Q60748 whole entry)": "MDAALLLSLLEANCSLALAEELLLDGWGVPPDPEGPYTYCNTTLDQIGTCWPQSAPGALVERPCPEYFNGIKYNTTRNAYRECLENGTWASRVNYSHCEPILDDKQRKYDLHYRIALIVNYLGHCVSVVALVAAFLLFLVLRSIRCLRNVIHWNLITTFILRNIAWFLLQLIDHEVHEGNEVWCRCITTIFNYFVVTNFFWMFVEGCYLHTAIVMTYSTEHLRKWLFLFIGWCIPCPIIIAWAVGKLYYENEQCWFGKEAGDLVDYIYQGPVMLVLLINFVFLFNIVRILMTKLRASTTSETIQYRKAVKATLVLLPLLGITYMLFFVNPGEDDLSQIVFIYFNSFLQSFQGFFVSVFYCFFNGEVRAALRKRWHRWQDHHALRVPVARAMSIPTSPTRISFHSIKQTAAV", "conditions": "cited from earlier work"}, "RAW264.7 cells [5]": {"test_system": "RAW264.7 cells", "assay": "LPS-induced cytokine secretion from RAW264.7 macrophages (ELISA)", "type": "cell-based, mouse", "method": "(§2) RAW 264.7 cells were cultured in Dulbecco's Modified Eagle Medium supplemented with 10% fetal calf serum (FCS), 10 mM L-glutamine, 100 U/ml penicillin, 0.1 mg/ml streptomycin (all purchased by Gibco), at 5% CO2 and 37° C. Cells were plated in 25 cm^2 flasks one day prior to stimulation. Cells were then stimulated with 10 μg/ml Ecoli-derived LPS (serotype 0111:B4, cat. # L2630, Sigma) and recombinant CRH (Sigma) at a concentration of 10^−8 M.\nas §1, with “Serum from trunk blood was collected as follows: a) for the determination of TNF-α 1 hour after LPS administration and b) at 4 hours for the determination of IL-1β or IL-6 levels. Each” for “Each”"}, "RAW264.7 cells [6]": {"test_system": "RAW264.7 cells", "assay": "Cytokine mRNA in RAW264.7 cells, semi-quantitative RT-PCR", "type": "cell-based, mouse", "method": "as §2\n(§3) Total cellular RNA was isolated using Trizol reagent (Gibco). Following reverse transcription (Thermoscript RT, Invitrogen), 1 μl of the cDNA product was amplified by PCR at 33 cycles. […] Intensity of the bands was quantified using TINAscan software.\n(§4) Primers for actin were: sense, 5′-TCAGAAGAACTCCTATGTGG-3′; antisense, 5′-TCTCTTTGATGTCACGCACG-3′, giving a 499 bp product; for Tnf-α were: 5′-CACGCTCTTCTGTCTACTGAACTTCG-3′; 5′-GGCTGGGTAGAGAATGGATGAACACC-3′, giving a 590 bp product; for IL-1β were 5′-GGATGAGGACATGAGCACCT-3′ and 5′-TCCATTGAGGTGGAGAGCTT-3′, resulting in a 196 bp product; for IL-6,5′-TGAAGTTCCTCTCTGCAAGAGACT-3′,5′-TGA GGA AGG CCG TGG TTG T-3′, giving a 200 bp product. […] The quantitation was performed using the “TI-NAscan” software. […]"}, "[7]": {"test_system": "thioglycollate-elicited peritoneal macrophages", "assay": "Cytokine mRNA in thioglycollate-elicited peritoneal macrophages, RT-PCR", "type": "cell-based, Balb/c mice", "method": "A 4% thioglycollate solution was prepared and autoclaved 2 days prior to administration. 1.5 ml of the thioglycollate solution was injected intraperitoneally in BALB/c mice and peritoneal macrophages were isolated by lavage of the peritoneal cavity with Dulbecco's Modified Medium. Cells were then cultured in DMEM supplemented with 10% FCS, 10 mM L-glutamine, 100 U/ml penicillin, 0.1 mg/ml streptomycin (Gibco). Cells were plated at a concentration of 5×10^5/ml and maintained in culture 24 hours prior to stimulation.\nas §3, §4"}, "[8]": {"conditions": "CRH 1×10^−8 M plus LPS 10 μg/ml, 24 hours, vs LPS alone, p=0.04"}}, "note": "Residue numbers refer to the chain shown, from its start. “Also recorded” adds a separate entry of the source. No end group written: not given here.", "data": [{"compound": "CCCCN(CC)c1nc(C)nc2c1c(C)c(C)n2-c1c(C)cc(C)cc1C", "note": "[antalarmin]", "values": [{"measurement": "TNF-α level", "setting": "[1]; 1 h after LPS, p=0.001", "result": "significantly reduced"}, {"measurement": "TNF-α level", "setting": "[1]; 2 hours after LPS injection, p<0.001", "result": "significantly lower"}, {"measurement": "IL-6 level", "setting": "[1]; p<0.001", "result": "significantly lower"}, {"measurement": "IL-6 level", "setting": "[1]; p<0.001, listed as Antalarmin", "result": "significantly reduced"}, {"measurement": "IL-1β level", "setting": "[1]", "result": "significantly lower"}, {"measurement": "IL-1β level", "setting": "[1]; listed as Antalarmin", "result": "significantly reduced"}, {"measurement": "IL-6 level of LPS treated animals compared with LPS plus antalarmin treated mice", "setting": "[1]; 6 hours after LPS, p<0.001, value describes LPS alone relative to LPS plus antalarmin", "result": "significantly higher"}, {"measurement": "IL-1β level of LPS treated animals compared with LPS plus antalarmin treated mice", "setting": "[1]; 6 hours after LPS, p<0.01, value describes LPS alone relative to LPS plus antalarmin", "result": "significantly higher"}, {"measurement": "effect on the enhancing effect of CRH", "setting": "CRH-R1 receptor [2]; macrophages in vitro, LPS", "result": "blocked completely"}, {"measurement": "effect on CRH-mediated effects (p38, Fas ligand, apoptosis)", "setting": "CRH-R1 receptor [3]", "result": "blocks all"}, {"measurement": "mice still alive at 18 h", "setting": "[4]; E coli-derived LPS 0.7 mg/25 g, antalarmin pre-treatment, all animals with LPS alone had died", "result": 72, "unit": "%"}, {"measurement": "overall survival", "setting": "[4]; E coli-derived LPS, in the presence of antalarmin, p=0.002, observed 7 days", "result": "significantly improved"}, {"measurement": "animals that had died at 18 hours", "setting": "[4]; Salmonella enteritidis-derived LPS 0.7 mg/25 g i.p., antalarmin 20 mg/kg IP 1.5 h prior to LPS, LPS alone 60%", "result": 20, "unit": "%"}]}, {"compound": "Lipopolysaccharide [LPS]", "values": [{"measurement": "animals survived", "setting": "Balb/c mice; LPS 0.2 mg/25 g i.p.", "result": "One hundred"}, {"measurement": "animals survived", "setting": "Balb/c mice; LPS 0.4 mg/25 g i.p.", "result": 80, "unit": "%"}, {"measurement": "animals survived", "setting": "Balb/c mice; LPS 0.6 mg/kg i.p. (so in the source)", "result": 40, "unit": "%"}, {"measurement": "animals survived", "setting": "Balb/c mice; LPS 0.7 mg/25 g i.p.", "result": "none"}, {"measurement": "animals survived", "setting": "Balb/c mice; LPS 1 mg/25 g i.p.", "result": "none"}, {"measurement": "LD100", "setting": "Balb/c mice; LPS i.p., mice", "result": "≥ 0.7 mg per 25 g of body weight"}, {"measurement": "LD50", "setting": "Balb/c mice; LPS i.p., mice, survival monitored seven days", "result": 0.5, "unit": "mg per 25 g body weight"}]}, {"compound": "Urocortin II (IVLSLDVPIGLLQILLEQARARAAREQATTNARILARVGHC; ends and bridges not checked; UniProt Q96RP3 72-112, looked up) [CRH-related peptide that induces macrophage apoptosis via the CRH-R2 receptor]", "values": [{"measurement": "apoptosis on macrophages", "setting": "CRH-R2 receptor", "result": "induce apoptosis"}]}, {"compound": "corticotropin-releasing hormone [CRH]", "values": [{"measurement": "LPS-induced IL-1β secretion", "setting": "RAW264.7 cells [5]; CRH 1×10^−8 M plus LPS 10 μg/ml, 24 hours, vs LPS alone, p=0.01", "result": "potentiates; also recorded: significantly augmented"}, {"measurement": "LPS-induced IL-6 secretion", "setting": "RAW264.7 cells [5]; [8]", "result": "potentiates; also recorded: significantly augmented"}, {"measurement": "LPS-induced TNF-α secretion", "setting": "RAW264.7 cells [5]; [8]", "result": "significantly higher; also recorded: significantly augmented"}, {"measurement": "cytokine secretion, CRH alone", "setting": "RAW264.7 cells [5]; CRH 1×10^−8 M without LPS", "result": "only a minimal effect"}, {"measurement": "inflammatory response to lipopolysaccharide (LPS) of macrophages", "setting": "CRH-R1 receptor [2]; in vitro", "result": "enhances"}, {"measurement": "LPS-induced cytokine transcription (IL-1β, TNF-α, IL-6 mRNA)", "setting": "RAW264.7 cells [6]; CRH plus LPS, densitometry normalized versus actin", "result": "further potentiates; also recorded: strongly augmented"}, {"measurement": "transcription of IL-1β, TNF-α, or IL-6, CRH alone", "setting": "RAW264.7 cells [6]; CRH without LPS", "result": "induces expression; also recorded: minimal transcription"}, {"measurement": "LPS-induced pro-inflammatory cytokine expression", "setting": "[7]; CRH plus LPS", "result": "augments; also recorded: significantly augmented"}, {"measurement": "TNF-α, IL-1β or IL-6 transcription, CRH alone", "setting": "[7]; CRH without LPS", "result": "unable to induce"}, {"measurement": "Fas ligand production", "setting": "CRH-R1 receptor [3]", "result": "stimulates"}, {"measurement": "apoptosis", "setting": "CRH-R1 receptor [3]", "result": "induces apoptosis"}, {"measurement": "p38 mitogen-activated protein kinase", "setting": "CRH-R1 receptor [3]", "result": "activates"}]}, {"compound": "sauvagine-30", "values": [{"measurement": "effect on Urocortin / Urocortin II induced macrophage apoptosis", "setting": "CRH-R2 receptor", "result": "completely abolishes"}]}]}
